Source: patent US20250263669A1, “INDUCED TOTIPOTENT STEM CELLS AND PREPARATION METHOD THEREFOR” (TSINGHUA UNIVERSITY, priority 2021, published 2025)

Legend:
Wnt signaling [1] = settings: studies have shown; cited from earlier work
Wnt signaling [2] = assay: GO analysis of Wnt signaling-targeted genes in ciTotiSC culture conditions; assay type: cell-based, mouse; settings: 1-AKP withdrawn in ciTotiSC culture conditions
Description: (§1) Meanwhile, the inventors also observed a prolongation of the G2 phase of the cell cycle after induction of totipotent stem cells (ciTotiSCs), which was consistent with the difference between early 2C embryos and blastocysts (FIG. 10i).

[3] = test system: totipotency genes, maternal genes and ZGA genes; assay: RNA-seq analysis of specific gene sets in totipotent cell induction; assay type: cell-based, mouse; settings: for role in induction of totipotent stem cells (upregulation of totipotency genes, maternal genes and ZGA genes): RNA-seq, specific gene sets
[4] = test system: totipotent stem cells (ciTotiSCs); assay: Cell cycle G2 phase of totipotent stem cells (ciTotiSCs); assay type: cell-based, mouse; settings: 1-Azakenpaullone withdrawn from ciTotiSC culture conditions
Description: as §1

NF-κB signaling = assay: GO analysis and gene expression after WS6 withdrawal in ciTotiSC culture conditions; assay type: cell-based, mouse
Description: WS6 is an IKK—NF-κB inhibitor that was previously shown to promote post-mitotic cell proliferation. […] Furthermore, it has been reported that downregulation of NF-κB during zygote development is critical for its totipotent state, and activation of NF-κB triggers subsequent development after ZGA (Akihiko Nishikimi, 1999; Paciolla et al. 2011). Therefore, WS6 may play a role in promoting and stabilizing induction of totipotent stem cells (ciTotiSCs), in part by inhibiting the NF-κB mediated immune response triggered by ERV activation (FIGS. 10k, j).

O=C1Cc2c([nH]c3ccc(Br)cc23)-c2ncccc2N1 [1-Azakenpaullone]
Wnt signaling downstream gene expression and cell cycle arrest (Wnt signaling [1]): induces specific Wnt signaling downstream gene expression and G2/M arrest simultaneously
specific Wnt signaling-targeted genes after withdrawal (Wnt signaling [2]): not up-regulated
role in induction of totipotent stem cells (upregulation of totipotency genes, maternal genes and ZGA genes) [3]: important for the induction of totipotent stem cells
G2 phase prolongation of ciTotiSCs after withdrawal [4]: reduced

Cc1ccc(C2=CCC(C)(C)c3ccc(C#Cc4ccc(C(=O)O)cc4)cc32)cc1 [AGN193109]
gene induction in the presence of the RA antagonist ([3]; in the presence of AGN193109): could not be induced

C/C(=C\c1ccc(C(=O)O)cc1)c1ccc2c(c1)C(C)(C)CCC2(C)C [TTNPB]
activation of totipotency, maternal and ZGA genes rich in RAR-binding motifs [3]: could directly activate
role in induction of totipotent stem cells (upregulation of totipotency genes, maternal genes and ZGA genes) [3]: important for the induction of totipotent stem cells

CN1CCN(Cc2ccc(NC(=O)Cc3ccc(Oc4cc(NC(=O)C5CC5)ncn4)cc3)cc2C(F)(F)F)CC1 [WS6]
expression of genes downstream of NF-κB signaling (NF-κB signaling; WS6 withdrawn): up-regulated
GO analysis of differential genes after WS6 ablation (NF-κB signaling; ciTotiSC culture conditions): enriched multiple innate immunity-related pathways, especially NF-κB signaling
role in induction of totipotent stem cells (upregulation of totipotency genes, maternal genes and ZGA genes) [3]: important for the induction of totipotent stem cells
